Reference: patent publication US6385487B1, “Methods for electrokinetic delivery of medicaments” (Biophoretic Therapeutic Systems, LLC, priority 1996, dated 2002)

Assays:
[1] = system: mucocutaneous Herpes Simplex (Type I and Type II) eruptions; experiment: Clinical study: iontophoretic application of antiviral agent to herpes lesions (Stage 1 treatment); type: in vivo, human; details: for No response (count, Stage 1 treatment results) / Some response (count, Stage 1 treatment results): iontophoretic 10-15 minute application to lesion, 0.2 ma-0.6 ma, evaluated in 24 hours; for Major response (count, Stage 1 treatment results): iontophoretic 10-15 minute application, major response = resolution of pain in <6 hours and lesion crusted and healing within 24 hours
Text: The inventor has conducted a clinical study using a prototype iontophoretic device in accordance with the present invention for the treatment of cold sores. The clinical response was promising. A second independent, qualified investigator, a board-certified Urologist, conducted a study using the present apparatus and method for treating male genital herpes lesions with encouraging results. Table 1 summarizes data (discussed below) supporting the claim to unexpected clinical benefits treating disease with this novel method. The method and medicament application device when used together for treating these common, embarrassing, and previously not easily-treatable ailments provide surprising advantages.
The embodiment of the device shown in FIG. 1 and described hereinabove is an improvement over the prototype used in the clinical study, which was a larger unit, not user-friendly, which required physically connecting wires to the patient's body which created anxiety, and could not be used without attending personnel. Notwithstanding design, the apparatus used in the clinical study summarized in Table 1 employed electronics similar to the apparatus described herein and was used to optimize the clinical performance of the embodiment 12 of the device described herein.
(§1) The clinical studies included patient volunteers with full informed consent who suffered from recurrent cold sores. […] The treatment incorporated an electrode saturated with Acyclovir® ointment (ZOVIRAX®) or IUDR (STOXIL®) ophthalmic drops as supplied by the manufacturer. Thus mounted Anodic electrode of the prototype system was used for a 10-15 minute application directly to the lesion with the average current setting of 0.2 ma-0.6 ma which was well tolerated by all patients.
(§2) The lesion was evaluated in 24 hours. In 92% of the iontophoretically treated cases (>70 lesions treated) a major response was noted. A major response was categorized by resolution of pain in <6 hours and lesion crusted and healing within 24 hours. The normal course of cold sores involves an average period of 10-12 days before resolution and healing occurs. The present apparatus and clinical method for treatment of mucocutaneous Herpes Simplex (Type I and Type II) eruptions presented herein have been described and performed with excellent results. This novel user-friendly apparatus in combination with the disclosed clinical treatment method presents a very effective new treatment for Herpes Simplex eruptions.

[2] = system: herpes lesions; experiment: Control group: patients with concurrent herpes lesions, one treated iontophoretically, the other by repeated topical application of the same agent; type: in vivo, human; details: for Major Response (count), Control lesion / No Response (count), Control lesion / Some Response (count), Control lesion: repeated unassisted topical application of the same antiviral agent; for Major Response (count), Treated lesion / No Response (count), Treated lesion / Some Response (count), Treated lesion: iontophoretically treated lesion, single 10-15 minute treatment; for Outcome of unassisted topically treated lesions: repeated topical application, compared with resolution in 24 hours; for Outcome of iontophoretically treated lesions: single 10-15 minute iontophoretic treatment, all treated lesions
Protocol: The study included a control situation wherein seven patients were found who had simultaneous concurrent herpes lesions at separate locations on their bodies. In each case, one lesion was treated with iontophoretic application of antiviral agent (Acyclovir® or IUDR) and the other lesion was treated in the standard method employed in the prior art comprising repeated topical application of the same antiviral agent.
as §1, §2

| Structure (SMILES) | No response (count, Stage 1 treatment results) [1] | Some response (count, Stage 1 treatment results) [1] | Major response (count, Stage 1 treatment results) [1] | Major Response (count), Control lesion [2] | No Response (count), Control lesion [2] | Some Response (count), Control lesion [2] | Major Response (count), Treated lesion [2] | No Response (count), Treated lesion [2] | Some Response (count), Treated lesion [2] | Outcome of unassisted topically treated lesions [2] | Outcome of iontophoretically treated lesions [2] |
| --- | --- | --- | --- | --- | --- | --- | --- | --- | --- | --- | --- |
| Nc1nc2c(ncn2COCCO)c(=O)[nH]1 [ACYCLOVIR ®, 2-amino-1,9-dihydro-9-[(2-hydroxyethoxy)methyl]-6H-purin-6-one] | 1 | 3 | 42 | 0 | 1 | 0 | 1 | 0 | 0 | none of the unassisted topically treated lesions demonstrated a similar response | resolution in 24 hours |
| O=c1[nH]c(=O)n([C@H]2C[C@H](O)[C@@H](CO)O2)cc1I [IUDR, 5-iodo-2 deoxyuridine] | 1 | 1 | 26 | 0 | 5 | 2 | 7 | 0 | 0 | none of the unassisted topically treated lesions demonstrated a similar response | resolution in 24 hours |
